Here are results for one molecule from ChEMBL document CHEMBL3351427, “Trimeric anthracenes from the endophytic fungus Stemphylium globuliferum” (J Nat Prod, 2014).

In brackets after ≈: the same amount, converted by molar mass.

Holding throughout (type): functional
The test system of one assay is Staphylococcus aureus. The experiment in a line: Antibacterial activity against Staphylococcus aureus ATCC 29213 by broth microdilution method.
The subject of the next assay is Pseudomonas aeruginosa. The experiment in a line: Antibacterial activity against Pseudomonas aeruginosa B 63230 by broth microdilution method. For orientation: In broth dilution the organism is exposed to a series of concentrations in liquid medium.
The subject of a further assay is Escherichia coli. The experiment in a line: Antibacterial activity against Escherichia coli ATCC 25922 by broth microdilution method.

As a reminder, the MIC is the least concentration at which growth counts as inhibited. As for `CN(C)[C@@H]1C(O)=C(C(N)=O)C(=O)[C@@]2(O)C(O)=C3C(=O)c4c(O)cccc4[C@@](C)(O)[C@H]3C[C@@H]12` [TETRACYCLINE], the values for the MIC in the assay on Staphylococcus aureus, in the assay with Pseudomonas aeruginosa and against Escherichia coli were 0.25 µg/mL (≈ 0.563 µM), 32 µg/mL (≈ 72 µM) and 0.5 µg/mL (≈ 1.13 µM), respectively.
